No end group written: not given here.

In general, IC50 refers to the midpoint of a concentration-inhibition curve. A lower IC50 goes with greater potency in that assay.

The first assay has as its system FeLV subunit vaccine.
Experiment: not given
Conditions: cats; cited from earlier work.
For the compound QS-21, the “augmenting the immunogenicity of an FeLV subunit vaccine” value is reported as “highly effective”.

The subject of another assay is HIV-1 recombinant vaccine.
Experiment: not given
Conditions: Rhesus monkeys; cited from earlier work.
As to QS-21, the “augmenting the immunogenicity of an HIV-1 recombinant vaccine” value is reported as “highly effective”.

For another assay, the target named is HLA B7 (Homo sapiens, UniProt P01889). The assay is described as follows: biochemical.
Sequence of HLA B7 (P01889 25-362): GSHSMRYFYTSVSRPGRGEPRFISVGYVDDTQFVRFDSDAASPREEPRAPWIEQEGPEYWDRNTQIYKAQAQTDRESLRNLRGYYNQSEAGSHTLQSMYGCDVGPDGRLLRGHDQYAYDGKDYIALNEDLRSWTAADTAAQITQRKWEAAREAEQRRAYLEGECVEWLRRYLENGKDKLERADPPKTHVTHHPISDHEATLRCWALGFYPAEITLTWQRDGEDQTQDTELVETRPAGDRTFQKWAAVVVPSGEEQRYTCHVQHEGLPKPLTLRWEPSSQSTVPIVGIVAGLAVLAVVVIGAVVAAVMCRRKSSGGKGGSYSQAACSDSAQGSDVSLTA
Sequence of HLA B7 (P61769 21-119, further chain): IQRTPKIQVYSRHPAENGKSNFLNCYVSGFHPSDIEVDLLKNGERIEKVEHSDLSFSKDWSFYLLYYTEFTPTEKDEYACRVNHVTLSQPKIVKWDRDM
Settings: not given
As to IPLTINKEEAL [IPLTINKEEAL], the IC50 was over 30 µM.

The target of the next assay is T1, HLA A2.1 (Homo sapiens, UniProt P04439, D140Y/D185E/D98H/E176V/E277Q/G131W/G231S/I119V/I121R/I166T/I218V/L300P/L318F/N151K/N90K/P208A/P217A/Q86G/Q94H/R138H/R169H/T345S).
T1 construct: endogenous in cells
The experiment in a line: biochemical. The assay is classed as binding.
Settings: not given
An excerpt:
(§1) Purification of HLA class I molecules.
The compound `CC[C@H](C)[C@H](NC(=O)[C@@H](NC(=O)[C@@H](N)CC(C)C)[C@@H](C)O)C(=O)N[C@@H](CC(N)=O)C(=O)N[C@@H](CCCCN)C(=O)N[C@@H](CCC(=O)O)C(=O)N[C@@H](CCC(=O)O)C(=O)N[C@@H](C)C(=O)N[C@@H](CC(C)C)C(=O)O` [LTINKEEAL] returned a half-maximal inhibitory concentration (IC50) of over 30 µM.

ATGFKQSSKAL [ATGFKQSSKAL]: the 50% inhibitory concentration (IC50) is over 30 µM.

With CITQGKAI, the half-inhibitory concentration (IC50) was over 50 µM.

Take DLSSCITQGKA: the IC50 was over 50 µM.

Compound HVASGAGEAAI came in with an IC50 of over 50 µM.

For the compound PLTINKEEA, the IC50 is over 30 µM.

Regarding PLTINKEEAL [PLTINKEEAL], the IC50 is over 30 µM.

Compound TINKEEAL [TINKEEAL] registered an IC50 of over 30 µM.

As for VASGAGEAAI, the IC50 was over 50 µM.

Another assay deals with T2, HLA A3.2 (Homo sapiens, UniProt P04439).
T2 construct: endogenous in cells
T2 sequence (P61769 21-119): as the sequence (P61769 21-119, further chain) above
T2 sequence (P04439 25-365): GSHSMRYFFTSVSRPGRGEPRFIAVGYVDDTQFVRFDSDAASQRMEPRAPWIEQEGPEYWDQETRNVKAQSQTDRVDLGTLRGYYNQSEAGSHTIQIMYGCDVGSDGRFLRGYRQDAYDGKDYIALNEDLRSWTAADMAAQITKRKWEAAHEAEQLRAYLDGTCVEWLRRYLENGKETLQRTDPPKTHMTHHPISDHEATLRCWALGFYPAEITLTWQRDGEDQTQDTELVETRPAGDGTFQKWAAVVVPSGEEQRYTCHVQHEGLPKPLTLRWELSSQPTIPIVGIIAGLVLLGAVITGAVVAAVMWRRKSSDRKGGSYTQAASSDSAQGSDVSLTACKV
The experiment in a line: biochemical.
Settings: not given
The assay is classed as binding.
Text: as §1
On to KQSSKALQR, for which the 50% inhibitory concentration (IC50) was 43 nM.

Compound LTINKEEALQR had an IC50 of over 30000 nM.

Turning to QSSKALQR, the half-inhibitory concentration (IC50) was over 30000 nM.

The assay is the same for the next values; noted with them: AFFINITY (nM) A3.2, Table 1, CML peptides; 50% inhibition of standard peptide binding.
Take ATGFKQSSK: the IC50 was found to be 300 nM.

As for FKQSSKALQR, the 50% inhibitory concentration (IC50) was found to be 545 nM.

Compound GFKQSSKALQR yielded an IC50 of 810 nM.

HSATGFKQSSK: the IC50 came to 400 nM.

Compound SATGFKQSSK registered a half-inhibitory concentration (IC50) of 5450 nM.

As to TGFKQSSK, the IC50 is over 30000 nM.

TINKEEALQR yielded an IC50 of over 30000 nM.

Staying with this assay, now noted: concentration for 50% inhibition, HLA A3.2, text b187.
In turn, ATGFKQSSK registered a half-maximal inhibitory concentration (IC50) of 100 to 500 nM.

With HSATGFKQSSK, half-maximal inhibition (IC50) was put at 400 nM.

(Values after US6156316A, “Oncogene fusion protein peptide vaccines” (Sloan-Kettering Institute for Cancer Research, priority 1995, dated 2000).)
